Assay results from BindingDB's records for doi:10.1021/np9005629 (Seoul National University, 2010).
pIC50: −log10 of the molar value. Where a name gives a salt, the structure may show the parent alone.

Molecular target: T1, Sortase family protein (Staphylococcus aureus, UniProt Q9S446)
T1 sequence (Q9S446 whole entry): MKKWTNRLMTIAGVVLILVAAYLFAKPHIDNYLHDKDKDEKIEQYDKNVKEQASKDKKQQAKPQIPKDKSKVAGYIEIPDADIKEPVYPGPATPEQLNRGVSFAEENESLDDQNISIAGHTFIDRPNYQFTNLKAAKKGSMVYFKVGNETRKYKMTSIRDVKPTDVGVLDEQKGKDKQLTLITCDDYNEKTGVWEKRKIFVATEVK
Assay: Inhibition of Staphylococcus aureus sortase A after 1 hr in the presence of fluorescent peptide […]-QALPETGEE-Edans by fluorimetry

SMILES: O=C(O)c1cc[c]([Hg][OH])cc1 [para-(Hydroxymercury)benzoic acid sodium salt]
- pIC50: 3.96
